Patent publication US8703483B2, “Reagents and methods for using human embryonic stem cells to evaluate toxicity of pharmaceutical compounds and other chemicals” (Wisconsin Alumni Research Foundation, priority 2006, dated 2014)

Tested on: human embryonic stem cells
Test: Metabolite profiling (LC/ESI-TOF mass spectrometry) of extracellular media of hESCs treated with alcohol
Format: cell-based
Conditions: ETOH 0.3
From the text: Binned masses were annotated in silico by querying the neutral masses in several different databases. These databases included Metlin, Biological Magnetic Resonance Data Bank (BMRB), NIST Chemistry WebBook, and the Human Metabolome Database. A mass was considered identified when its neutral mass was within 10 ppm of a known compound annotated in one of the databases listed above.

CCO [ETOH]
Fold: Unknown, mass 268.2487, RT 42.3656 (4 D): −1.517 fold
Fold: Unknown, mass 284.9798, RT 5.69776 (4 D): −1.2223 fold
Fold: Unknown, mass 286.1519, RT 14.88092 (4 D): −1.862 fold
Fold: Unknown, mass 293.1952, RT 66.86661 (4 D): −2.154 fold
Fold: Unknown, mass 293.9773, RT 4.014175 (4 D): −2.267 fold
Fold: Unknown, mass 294.1535, RT 20.67831 (4 D): −1.422 fold
Fold: Unknown, mass 295.1521, RT 8.967061 (4 D): 1.467 fold
Fold: Unknown, mass 301.1345, RT 7.719471 (4 D): 2.678 fold
Fold: Unknown, mass 315.6732, RT 26.51229 (4 D): −2.865 fold
Fold: Unknown, mass 322.1166, RT 23.90107 (4 D): −2.4215 fold
Fold: Unknown, mass 332.1367, RT 20.72194 (4 D): −2.077 fold
Fold: Unknown, mass 340.9252, RT 5.033976 (4 D): 2.625 fold
Fold: Unknown, mass 353.2765, RT 3.85935 (4 D): 4.904 fold
Fold: Unknown, mass 365.1606, RT 20.16372 (4 D): −1.925 fold
Fold: Unknown, mass 375.1886, RT 26.07722 (4 D): −4.751 fold
Fold: Unknown, mass 375.1898, RT 11.47109 (4 D): 2.132 fold
Fold: Unknown, mass 383.1721, RT 15.20829 (4 D): 3.377 fold
Fold: Unknown, mass 387.0812, RT 19.97914 (4 D): −1.699 fold
Fold: Unknown, mass 388.2349, RT 46.346 (4 D): −1.532 fold
Fold: Unknown, mass 393.1886, RT 19.69092 (4 D): −2.059 fold
Fold: Unknown, mass 396.1687, RT 6.259963 (4 D): 2.422 fold
Fold: Unknown, mass 403.1984, RT 17.27421 (4 D): −2.303 fold
Fold: Unknown, mass 417.2338, RT 33.09057 (4 D): −1.78 fold
Fold: Unknown, mass 417.2386, RT 21.14975 (4 D): −1.573 fold
Fold: Unknown, mass 420.0513, RT 13.35295 (4 D): −1.902 fold
Fold: Unknown, mass 421.2201, RT 27.46219 (4 D): −2.273 fold
Fold: Unknown, mass 429.2533, RT 18.03482 (4 D): −2.201 fold
Fold: Unknown, mass 443.2339, RT 30.87201 (4 D): 2.171 fold
Fold: Unknown, mass 443.3216, RT 67.0705 (4 D): 1.688 fold
Fold, Unknown metabolite, Mass 994.0917 (4 D, retention time 3.646902): 1.605
Fold, Unknown metabolite, Mass 980.075 (4 D, retention time 3.680188): 1.481
Fold, Unknown metabolite, Mass 1008.072 (4 D, retention time 3.705141): 1.416
Fold, Unknown metabolite, Mass 820.8181 (4 D, retention time 4.613879): −1.571
Fold, Unknown metabolite, Mass 611.8727 (4 D, retention time 4.936704): 2.01
Fold, Unknown metabolite, Mass 1038.786 (4 D, retention time 5.177162): 1.588
Fold, Unknown metabolite, Mass 921.0025 (4 D, retention time 5.399211): 1.945
Fold, Unknown metabolite, Mass 555.8505 (4 D, retention time 5.742094): −1.3396
Fold, Unknown metabolite, Mass 1040.323 (4 D, retention time 5.8905): −1.479
Fold, Unknown metabolite, Mass 509.6704 (4 D, retention time 5.891069): 1.468
Fold, metabolite Ethanesulfonic acid, Mass 579.2519 (4 D, retention time 5.903169): −2.112
Fold, Unknown metabolite, Mass 646.7084 (4 D, retention time 5.903429): 2.946
Fold, Unknown metabolite, Mass 732.007 (4 D, retention time 5.918027): 1.761
Fold, Unknown metabolite, Mass 658.2544 (4 D, retention time 8.787827): −3.21
Fold, Unknown metabolite, Mass 502.2258 (4 D, retention time 13.78553): 1.866
Fold, Unknown metabolite, Mass 566.2265 (4 D, retention time 14.9927): 1.624
Fold, Unknown metabolite, Mass 555.2406 (4 D, retention time 15.78741): 2.471
Fold, Unknown metabolite, Mass 577.2825 (4 D, retention time 16.90923): −8.917
Fold, Unknown metabolite, Mass 505.2616 (4 D, retention time 18.36887): 2.009
Fold, Unknown metabolite, Mass 489.2127 (4 D, retention time 21.72729): 2.372
Fold, Unknown metabolite, Mass 462.2217 (4 D, retention time 22.95657): 1.936
Fold, metabolite L-Oleandrosyl-oleandolide, Mass 530.314 (4 D, retention time 23.87065): 2.212
Fold, Unknown metabolite, Mass 574.3397 (4 D, retention time 24.7039): 1.524
Fold, metabolite L-Urobilinogen, Mass 596.3543 (4 D, retention time 25.14927): 1.545
Fold, Unknown metabolite, Mass 661.3846 (4 D, retention time 26.7452): 1.547
Fold, Unknown metabolite, Mass 447.2509 (4 D, retention time 29.86415): −1.858
Fold, Unknown metabolite, Mass 478.2761 (4 D, retention time 30.28867): 1.51
Fold, metabolite glucuronide, Mass 471.1928 (4 D, retention time 30.37291): 2.726
Fold, Unknown metabolite, Mass 449.2653 (4 D, retention time 30.45343): −2.414
Fold, Unknown metabolite, Mass 471.7804 (4 D, retention time 30.72707): −3.441
Fold, Unknown metabolite, Mass 510.8202 (4 D, retention time 31.22083): 2.502
Fold, Unknown metabolite, Mass 559.8329 (4 D, retention time 31.97996): −2.566
Fold, Unknown metabolite, Mass 635.4065 (4 D, retention time 32.08734): 1.395
Fold, Unknown metabolite, Mass 531.2876 (4 D, retention time 32.50661): 2.361
Fold, Unknown metabolite, Mass 603.3535 (4 D, retention time 32.67372): −2.94
Fold, Unknown metabolite, Mass 460.9391 (4 D, retention time 33.51823): −3.602
Fold, Unknown metabolite, Mass 619.3409 (4 D, retention time 33.68866): 2.126
Fold, Unknown metabolite, Mass 796.9917 (4 D, retention time 34.60124): 1.689
Fold, Unknown metabolite, Mass 751.4193 (4 D, retention time 35.028): 1.845
Fold, Unknown metabolite, Mass 531.3191 (4 D, retention time 35.58454): −3.0409
Fold, metabolite Neu5Acalpha2-3Galbeta1-4Glcbeta-Sp, Mass 702.2497 (4 D, retention time 40.84822): −2.216
Fold, Unknown metabolite, Mass 518.3914 (4 D, retention time 46.57666): 2.289
Fold, Unknown metabolite, Mass 731.0954 (4 D, retention time 47.76987): −3.25
Fold, Unknown metabolite, Mass 576.096 (4 D, retention time 47.90467): 1.558
Fold, Unknown metabolite, Mass 444.2237 (4 D, retention time 51.58546): 2.03
Fold, Unknown metabolite, Mass 468.2002 (4 D, retention time 51.6158): 1.92
Fold, Unknown metabolite, Mass 526.2773 (4 D, retention time 51.73057): 2.715
Fold, Unknown metabolite, Mass 446.0431 (4 D, retention time 54.8719): 1.934
Fold, Unknown metabolite, Mass 531.3736 (4 D, retention time 66.31491): 2.874
Fold, Unknown metabolite, Mass 487.3472 (4 D, retention time 66.73744): 2.878
Fold, Unknown metabolite, Mass 528.3631 (4 D, retention time 71.36012): 2.361
Fold, Unknown metabolite, Mass 556.3971 (4 D, retention time 88.02533): −2.384
Fold: 1,3-Dimethyl-8-isoquinolinol, mass 173.084, RT 20.23014 (24 H): −1.44 fold
Fold: 3,4-Dihydroxybutyric acid, mass 129.0452, RT 16.73904 (24 H): 1.796 fold
Fold: 3-Methoxytyramine / Phenylephrine, mass 167.0941, RT 23.6763 (24 H): −2.83 fold
